Assay results from PubChem BioAssay (NCI).
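All cell lines were grown in 96-well plates and treated with compound for 48 hours. GI50 is the concentration that inhibits growth by half. TGI marks complete inhibition of growth.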

Tests used:
Assay in all cases: NCI anticancer screen, dose series, 48 h
DU-145 prostate = test system: DU-145 prostate
PC-3 prostate = test system: PC-3 prostate
HOP-62 NSCLC = test system: HOP-62 NSCLC
SW-620 colon = test system: SW-620 colon
HS 578T breast = test system: HS 578T breast
TK-10 renal = test system: TK-10 renal
MOLT-4 leukemia = test system: MOLT-4 leukemia
RXF 393 renal = test system: RXF 393 renal
OVCAR-5 ovarian = test system: OVCAR-5 ovarian
SK-MEL-28 melanoma = test system: SK-MEL-28 melanoma
SF-295 CNS = test system: SF-295 CNS
A498 renal = test system: A498 renal
RPMI-8226 leukemia = test system: RPMI-8226 leukemia
CCRF-CEM leukemia = test system: CCRF-CEM leukemia
SK-OV-3 ovarian = test system: SK-OV-3 ovarian
UACC-257 melanoma = test system: UACC-257 melanoma
HT29 colon = test system: HT29 colon
SK-MEL-2 melanoma = test system: SK-MEL-2 melanoma
SF-539 CNS = test system: SF-539 CNS
MALME-3M melanoma = test system: MALME-3M melanoma
SN12C renal = test system: SN12C renal
HCT-116 colon = test system: HCT-116 colon
786-0 renal = test system: 786-0 renal
A549 NSCLC = test system: A549 NSCLC
NCI-H23 lung = test system: NCI-H23 lung
OVCAR-8 ovarian = test system: OVCAR-8 ovarian
UACC-62 melanoma = test system: UACC-62 melanoma
U251 CNS = test system: U251 CNS
OVCAR-3 ovarian = test system: OVCAR-3 ovarian
SNB-75 CNS = test system: SNB-75 CNS
NCI/ADR-RES ovarian = test system: NCI/ADR-RES ovarian
IGROV1 ovarian = test system: IGROV1 ovarian
ACHN renal = test system: ACHN renal
HCT-15 colon = test system: HCT-15 colon
LOX IMVI melanoma = test system: LOX IMVI melanoma
HCC-2998 colon = test system: HCC-2998 colon
OVCAR-4 ovarian = test system: OVCAR-4 ovarian
KM12 colon = test system: KM12 colon
MDA-MB-231 breast = test system: MDA-MB-231 breast
SNB-19 CNS = test system: SNB-19 CNS
SK-MEL-5 melanoma = test system: SK-MEL-5 melanoma
NCI-H522 lung = test system: NCI-H522 lung
NCI-H460 lung = test system: NCI-H460 lung
SR leukemia = test system: SR leukemia
NCI-H226 lung = test system: NCI-H226 lung
M14 melanoma = test system: M14 melanoma
MCF7 breast = test system: MCF7 breast
HOP-92 NSCLC = test system: HOP-92 NSCLC
K-562 leukemia = test system: K-562 leukemia
UO-31 renal = test system: UO-31 renal
T-47D breast = test system: T-47D breast
HL-60(TB) leukemia = test system: HL-60(TB) leukemia
SF-268 CNS = test system: SF-268 CNS
BT-549 breast = test system: BT-549 breast
EKVX NSCLC = test system: EKVX NSCLC
COLO 205 colon = test system: COLO 205 colon
CAKI-1 renal = test system: CAKI-1 renal
MDA-MB-435 = test system: MDA-MB-435

Nc1nc(N)c2c(n1)NC(c1ccccc1)C1CCc3ccccc3C1=N2 (stereo not given)
GI50 (DU-145 prostate): 4.38 µM | TGI (DU-145 prostate): 17.1 µM | GI50 (PC-3 prostate): 2.82 µM | TGI (PC-3 prostate): 47.7 µM | GI50 (HOP-62 NSCLC): 7.87 µM | TGI (HOP-62 NSCLC): 21.3 µM | GI50 (SW-620 colon): 6.3 µM | TGI (SW-620 colon): 20.7 µM | GI50 (HS 578T breast): 5.85 µM | TGI (HS 578T breast): 30 µM | GI50 (TK-10 renal): 3.01 µM | TGI (TK-10 renal): 14.8 µM | GI50 (MOLT-4 leukemia): 2.7 µM | TGI (MOLT-4 leukemia): 14.7 µM | GI50 (RXF 393 renal): 4.89 µM | TGI (RXF 393 renal): 19 µM | GI50 (OVCAR-5 ovarian): 14.2 µM | TGI (OVCAR-5 ovarian): 28 µM | GI50 (SK-MEL-28 melanoma): 7.72 µM | TGI (SK-MEL-28 melanoma): 20.2 µM | GI50 (SF-295 CNS): 1.69 µM | TGI (SF-295 CNS): 8.12 µM | GI50 (A498 renal): 2.29 µM | TGI (A498 renal): 8.66 µM | GI50 (RPMI-8226 leukemia): 3.21 µM | TGI (RPMI-8226 leukemia): 87.1 µM | GI50 (CCRF-CEM leukemia): 4.47 µM | TGI (CCRF-CEM leukemia): > 100 µM | GI50 (SK-OV-3 ovarian): 10.3 µM | TGI (SK-OV-3 ovarian): 22.7 µM | GI50 (UACC-257 melanoma): 3.72 µM | TGI (UACC-257 melanoma): 15 µM | GI50 (HT29 colon): 3.66 µM | TGI (HT29 colon): 14.4 µM | GI50 (SK-MEL-2 melanoma): 3.48 µM | TGI (SK-MEL-2 melanoma): 14 µM | GI50 (SF-539 CNS): 5.81 µM | TGI (SF-539 CNS): 18.8 µM | GI50 (MALME-3M melanoma): 2.13 µM | TGI (MALME-3M melanoma): 17.9 µM | GI50 (SN12C renal): 7.33 µM | TGI (SN12C renal): 21.3 µM | GI50 (HCT-116 colon): 2.97 µM | TGI (HCT-116 colon): 12.7 µM | GI50 (786-0 renal): 5.99 µM | TGI (786-0 renal): 19.1 µM | GI50 (A549 NSCLC): 7.11 µM | TGI (A549 NSCLC): 26 µM | GI50 (NCI-H23 lung): 4.56 µM | TGI (NCI-H23 lung): 19.4 µM | GI50 (OVCAR-8 ovarian): 4.71 µM | TGI (OVCAR-8 ovarian): 25.4 µM | GI50 (UACC-62 melanoma): 3.11 µM | TGI (UACC-62 melanoma): 18.2 µM | GI50 (U251 CNS): 4.65 µM | TGI (U251 CNS): 17.4 µM | GI50 (OVCAR-3 ovarian): 3.48 µM | TGI (OVCAR-3 ovarian): 15.4 µM | GI50 (SNB-75 CNS): 7.95 µM | TGI (SNB-75 CNS): 20.8 µM | GI50 (NCI/ADR-RES ovarian): 3.13 µM | TGI (NCI/ADR-RES ovarian): 13.6 µM | GI50 (IGROV1 ovarian): 4.45 µM | TGI (IGROV1 ovarian): 19.4 µM | GI50 (ACHN renal): 4.38 µM | TGI (ACHN renal): 16.8 µM | GI50 (HCT-15 colon): 4.06 µM | TGI (HCT-15 colon): 17.1 µM | GI50 (LOX IMVI melanoma): 3.79 µM | TGI (LOX IMVI melanoma): 15.1 µM | GI50 (HCC-2998 colon): 3.82 µM | TGI (HCC-2998 colon): 15.6 µM | GI50 (OVCAR-4 ovarian): 3.06 µM | TGI (OVCAR-4 ovarian): 17.1 µM | GI50 (KM12 colon): 4.07 µM | TGI (KM12 colon): 14.9 µM | GI50 (MDA-MB-231 breast): 6.02 µM | TGI (MDA-MB-231 breast): 20.3 µM | GI50 (SNB-19 CNS): 15.6 µM | TGI (SNB-19 CNS): 29.8 µM | GI50 (SK-MEL-5 melanoma): 0.638 µM | TGI (SK-MEL-5 melanoma): 2.25 µM | GI50 (NCI-H522 lung): 4.53 µM | TGI (NCI-H522 lung): 21.2 µM | GI50 (NCI-H460 lung): 3.81 µM | TGI (NCI-H460 lung): 14.4 µM | GI50 (SR leukemia): 4.52 µM | TGI (SR leukemia): > 100 µM | GI50 (NCI-H226 lung): 5.96 µM | TGI (NCI-H226 lung): 28.9 µM | GI50 (M14 melanoma): 4.88 µM | TGI (M14 melanoma): 18 µM | GI50 (MCF7 breast): 3.25 µM | TGI (MCF7 breast): 13.5 µM | GI50 (HOP-92 NSCLC): 2.55 µM | TGI (HOP-92 NSCLC): 10.8 µM | GI50 (K-562 leukemia): 3.42 µM | GI50 (UO-31 renal): 2.5 µM | TGI (UO-31 renal): 13.7 µM | GI50 (T-47D breast): 4.57 µM | TGI (T-47D breast): 25.6 µM | GI50 (HL-60(TB) leukemia): 2.37 µM | TGI (HL-60(TB) leukemia): 6.01 µM | GI50 (SF-268 CNS): 6.96 µM | TGI (SF-268 CNS): 20 µM | GI50 (BT-549 breast): 5.42 µM | TGI (BT-549 breast): 19.7 µM | GI50 (EKVX NSCLC): 2.68 µM | TGI (EKVX NSCLC): 15.1 µM | GI50 (COLO 205 colon): 3.07 µM | TGI (COLO 205 colon): 10.9 µM | GI50 (CAKI-1 renal): 3.97 µM | TGI (CAKI-1 renal): 18.3 µM | GI50 (MDA-MB-435): 2.93 µM | TGI (MDA-MB-435): 12.6 µM
